Assay results: PubChem BioAssay AID248 (DTP/NCI, 2004)
“And” between values parts separate entries of the source, which are not always exact repeats. Identical values can stand only once. Inconclusive results and toxic doses are left out. Cut-off read from the data, not from the text of the source: active = T/C of 150% or more; inactive = T/C below 125%.

System: L1210 leukemia ip in BDF1 mice, survival T/C
Test: NCI In Vivo Anticancer Drug Screen. Data for tumor model L1210 Leukemia (intraperitoneal) in B6D2F1 (BDF1) mice
Settings: endpoint: mean survival time, higher = longer survival
In short: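 Value reflects the ratio of survival in compound-treated mice to survival in vehicle-treated controls, with both groups carrying the same transplanted tumor.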

[1] = dose: 100.0 mg/kg/injection, schedule: Q01DX001 (ip), vehicle: saline with Tween-80
[2] = dose: 200.0 mg/kg/injection, schedule: Q01DX001 (ip), vehicle: saline with Tween-80
[3] = dose: 400.0 mg/kg/injection, schedule: Q01DX001 (ip), vehicle: saline with Tween-80
[4] = dose: 100.0 mg/kg/injection, schedule: Q01DX009 (ip), vehicle: Klucel (hydroxypropylcellulose) (HPC)
[5] = dose: 100.0 mg/kg/injection, schedule: Q04DX003 (ip), vehicle: saline with Tween-80
[6] = dose: 200.0 mg/kg/injection, schedule: Q04DX003 (ip), vehicle: saline with Tween-80
[7] = dose: 400.0 mg/kg/injection, schedule: Q04DX003 (ip), vehicle: saline with Tween-80
[8] = dose: 100.0 mg/kg/injection, schedule: Q01DX009 (ip), vehicle: saline with Tween-80
[9] = dose: 200.0 mg/kg/injection, schedule: Q01DX009 (ip), vehicle: saline with Tween-80
[10] = dose: 12.5 mg/kg/injection, schedule: Q01DX009 (ip), vehicle: Klucel (hydroxypropylcellulose) (HPC)
[11] = dose: 25.0 mg/kg/injection, schedule: Q01DX009 (ip), vehicle: Klucel (hydroxypropylcellulose) (HPC)
[12] = dose: 50.0 mg/kg/injection, schedule: Q01DX009 (ip), vehicle: Klucel (hydroxypropylcellulose) (HPC)
[13] = dose: 25.0 mg/kg/injection, schedule: Q04DX003 (ip), vehicle: Klucel (hydroxypropylcellulose) (HPC)
[14] = dose: 100.0 mg/kg/injection, schedule: Q04DX003 (ip), vehicle: Klucel (hydroxypropylcellulose) (HPC)

Measured: T/C

COc1ccc2c(OC)cccc2c1
inactive: dose: 100.0 mg/kg/injection, schedule: Q01DX009 (ip), vehicle: other 87 % of control | dose: 200.0 mg/kg/injection, schedule: Q01DX009 (ip), vehicle: other 91 % of control | dose: 400.0 mg/kg/injection, schedule: Q01DX009 (ip), vehicle: other 91 % of control

NC(=O)N/N=C1\CCCCC12CCCCC2
inactive: dose: 100.0 mg/kg/injection, schedule: Q04DX003 (ip), vehicle: acetone 95 % of control | dose: 200.0 mg/kg/injection, schedule: Q04DX003 (ip), vehicle: acetone 103 % of control | dose: 400.0 mg/kg/injection, schedule: Q04DX003 (ip), vehicle: acetone 97 % of control

CC(=O)Nc1cc(C)cc(C)n1
inactive: dose: 87.5 mg/kg/injection, schedule: Q01DX009 (ip), vehicle: saline with Tween-80 113 % of control | dose: 175.0 mg/kg/injection, schedule: Q01DX009 (ip), vehicle: saline with Tween-80 102 % of control

CC(C)(CCCC(C)(C)[N+](=O)[O-])[N+](=O)[O-]
inactive: [1] 101 % of control | [2] 94 % of control | [3] 101 % of control

Clc1ccc(CSC2=NCCN2)cc1
inactive: dose: 12.5 mg/kg/injection, schedule: Q04DX003 (ip), vehicle: saline 94 % of control | dose: 25.0 mg/kg/injection, schedule: Q04DX003 (ip), vehicle: saline 93 % of control | dose: 50.0 mg/kg/injection, schedule: Q04DX003 (ip), vehicle: saline 98 % of control

CCN(CC)C(C)CNc1cc(C)nc(/N=C(\N)Nc2ccc(Cl)c(Cl)c2)n1 (stereo unspecified)
inactive: dose: 2.35 mg/kg/injection, schedule: Q01DX009 (ip), vehicle: Klucel (hydroxypropylcellulose) (HPC) 110 % of control | dose: 4.69 mg/kg/injection, schedule: Q01DX009 (ip), vehicle: Klucel (hydroxypropylcellulose) (HPC) 100 % of control | dose: 9.38 mg/kg/injection, schedule: Q01DX009 (ip), vehicle: Klucel (hydroxypropylcellulose) (HPC) 98 % of control and 100 % of control | dose: 37.5 mg/kg/injection, schedule: Q01DX009 (ip), vehicle: Klucel (hydroxypropylcellulose) (HPC) 100 % of control | dose: 75.0 mg/kg/injection, schedule: Q01DX001 (ip), vehicle: other 97 % of control

CCc1ccc(/C(C#N)=C/c2ccc(OC)cc2)cc1
inactive: [4] 92 % of control | dose: 200.0 mg/kg/injection, schedule: Q01DX009 (ip), vehicle: Klucel (hydroxypropylcellulose) (HPC) 94 % of control | dose: 400.0 mg/kg/injection, schedule: Q01DX009 (ip), vehicle: Klucel (hydroxypropylcellulose) (HPC) 92 % of control

CC(=O)c1cccc(NC(=O)Nc2cccc(C(C)=O)c2)c1
inactive: dose: 2.5 mg/kg/injection, schedule: Q01DX009 (ip), vehicle: saline 101 % of control | dose: 5.0 mg/kg/injection, schedule: Q01DX009 (ip), vehicle: saline 95 % of control | dose: 10.0 mg/kg/injection, schedule: Q01DX009 (ip), vehicle: saline 98 % of control | dose: 20.0 mg/kg/injection, schedule: Q01DX009 (ip), vehicle: saline 93 % of control and 101 % of control | dose: 40.0 mg/kg/injection, schedule: Q01DX009 (ip), vehicle: saline 90 % of control | dose: 80.0 mg/kg/injection, schedule: Q01DX009 (ip), vehicle: saline 93 % of control | dose: 160.0 mg/kg/injection, schedule: Q01DX009 (ip), vehicle: saline 90 % of control | dose: 320.0 mg/kg/injection, schedule: Q01DX009 (ip), vehicle: saline 95 % of control

CC(C)c1ccc(/C=C2\CSC/C(=C/c3ccc(C(C)C)cc3)C2=O)cc1
inactive: dose: 200.0 mg/kg/injection, schedule: Q01DX001 (ip), vehicle: saline 95 % of control | dose: 200.0 mg/kg/injection, schedule: Q01DX009 (ip), vehicle: saline 91 % of control

O=Cc1ccc(N(c2ccc(C=O)cc2)c2ccc(C=O)cc2)cc1
inactive: [5] 100 % of control | [6] 89 % of control | [7] 92 % of control

CCN(CC)CCCC(C)NC(=O)c1ccc(Cl)nc1 (stereo unspecified)
inactive: dose: 50.0 mg/kg/injection, schedule: Q01DX009 (ip), vehicle: saline with Tween-80 105 % of control | [8] 103 % of control | [9] 95 % of control

CCOc1ccc(C2(C)CC(=O)NN2)c(O)c1 (stereo unspecified)
inactive: [1] 101 % of control | [2] 103 % of control | [3] 98 % of control

O=C(/C=C/c1ccc(Br)cc1)c1ccc(Cl)cc1
inactive: [8] 96 % of control | [5] 96 % of control | [9] 96 % of control | [6] 91 % of control | dose: 400.0 mg/kg/injection, schedule: Q01DX009 (ip), vehicle: saline with Tween-80 94 % of control | [7] 92 % of control

CC(=O)OC1C=C2CCC3C(CCC4(C)C(OC(C)=O)CCC34)C2(C)CC1 (stereo unspecified)
inactive: [10] 92 % of control | [11] 92 % of control | [12] 90 % of control | dose: 75.0 mg/kg/injection, schedule: Q01DX009 (ip), vehicle: Klucel (hydroxypropylcellulose) (HPC) 101 % of control | dose: 115.0 mg/kg/injection, schedule: Q01DX009 (ip), vehicle: Klucel (hydroxypropylcellulose) (HPC) 98 % of control | dose: 170.0 mg/kg/injection, schedule: Q01DX009 (ip), vehicle: Klucel (hydroxypropylcellulose) (HPC) 95 % of control

COc1ccc(COC(=O)Oc2ccc(Cl)cc2)cc1OC
inactive: [5] 96 % of control | [6] 96 % of control | [7] 101 % of control

CSc1ccccc1C1CCCCCC1OS(=O)(=O)c1ccc(C)cc1 (stereo unspecified)
inactive: dose: 15.0 mg/kg/injection, schedule: Q01DX001 (ip), vehicle: carboxymethylcellulose (CMC) 96 % of control | dose: 30.0 mg/kg/injection, schedule: Q01DX001 (ip), vehicle: carboxymethylcellulose (CMC) 102 % of control

CC(C)=CCN(CC=C(C)C)CCC(C)(C(N)=O)c1cccc2ccccc12 (stereo unspecified)
inactive: dose: 6.25 mg/kg/injection, schedule: Q01DX009 (ip), vehicle: Klucel (hydroxypropylcellulose) (HPC) 101 % of control | dose: 6.25 mg/kg/injection, schedule: Q04DX003 (ip), vehicle: Klucel (hydroxypropylcellulose) (HPC) 104 % of control | [10] 98 % of control | dose: 12.5 mg/kg/injection, schedule: Q04DX003 (ip), vehicle: Klucel (hydroxypropylcellulose) (HPC) 100 % of control | [11] 101 % of control | [13] 105 % of control

c1ccc(N=C(Nc2ccccc2)Nc2ccccc2)cc1
inactive: [11] 94 % of control | dose: 25.0 mg/kg/injection, schedule: Q04DX002 (ip), vehicle: Klucel (hydroxypropylcellulose) (HPC) 114 % of control | [12] 94 % of control | dose: 50.0 mg/kg/injection, schedule: Q04DX002 (ip), vehicle: Klucel (hydroxypropylcellulose) (HPC) 114 % of control | [4] 90 % of control | dose: 100.0 mg/kg/injection, schedule: Q04DX002 (ip), vehicle: Klucel (hydroxypropylcellulose) (HPC) 96 % of control and 98 % of control

O=[n+]1ccn2cc3ccccc3cc2c1
inactive: dose: 12.5 mg/kg/injection, schedule: Q01DX009 (ip), vehicle: saline with Tween-80 105 % of control

O=[N+]([O-])c1ccc(C=Nc2ccccc2S)s1
inactive: [14] 100 % of control | dose: 200.0 mg/kg/injection, schedule: Q04DX003 (ip), vehicle: Klucel (hydroxypropylcellulose) (HPC) 96 % of control | dose: 400.0 mg/kg/injection, schedule: Q04DX003 (ip), vehicle: Klucel (hydroxypropylcellulose) (HPC) 94 % of control

CCCCCCOP(=O)(CCCCCC)OCCCCCC
inactive: dose: 13.3 mg/kg/injection, schedule: Q01DX Z (ip), vehicle: methylcellulose (MC) 96 % of control | dose: 20.0 mg/kg/injection, schedule: Q01DX Z (ip), vehicle: methylcellulose (MC) 102 % of control | [11] 93 % of control | [13] 94 % of control | dose: 30.0 mg/kg/injection, schedule: Q01DX Z (ip), vehicle: methylcellulose (MC) 95 % of control | [12] 101 % of control | dose: 50.0 mg/kg/injection, schedule: Q04DX003 (ip), vehicle: Klucel (hydroxypropylcellulose) (HPC) 89 % of control | [4] 98 % of control | [14] 103 % of control

O=S(=O)(OCC1CO1)c1ccccc1 (stereo unspecified)
inactive: dose: 50.0 mg/kg/injection, schedule: Q01DX006 (ip), vehicle: saline with Tween-80 103 % of control | dose: 100.0 mg/kg/injection, schedule: Q01DX006 (ip), vehicle: saline with Tween-80 106 % of control | dose: 200.0 mg/kg/injection, schedule: Q01DX006 (ip), vehicle: saline with Tween-80 110 % of control
